ChEMBL document CHEMBL3286158, “Novel pyridyl- or isoquinolinyl-substituted indolines and indoles as potent and selective aldosterone synthase inhibitors” (J Med Chem, 2014)

Columns and labels:
[1] = Half life in human liver microsomes at 1 uM by LC-MS/MS analysis
CYP19 = molecular target: T1, CYP19 (Homo sapiens, UniProt P11511); assay: Inhibition of CYP19 in human placental microsomes at 500 nM using [1beta-3H]androstenedione as substrate; design: species or system Placenta; details: probe [1beta-3H]androstenedione
T1 sequence (P11511 whole entry): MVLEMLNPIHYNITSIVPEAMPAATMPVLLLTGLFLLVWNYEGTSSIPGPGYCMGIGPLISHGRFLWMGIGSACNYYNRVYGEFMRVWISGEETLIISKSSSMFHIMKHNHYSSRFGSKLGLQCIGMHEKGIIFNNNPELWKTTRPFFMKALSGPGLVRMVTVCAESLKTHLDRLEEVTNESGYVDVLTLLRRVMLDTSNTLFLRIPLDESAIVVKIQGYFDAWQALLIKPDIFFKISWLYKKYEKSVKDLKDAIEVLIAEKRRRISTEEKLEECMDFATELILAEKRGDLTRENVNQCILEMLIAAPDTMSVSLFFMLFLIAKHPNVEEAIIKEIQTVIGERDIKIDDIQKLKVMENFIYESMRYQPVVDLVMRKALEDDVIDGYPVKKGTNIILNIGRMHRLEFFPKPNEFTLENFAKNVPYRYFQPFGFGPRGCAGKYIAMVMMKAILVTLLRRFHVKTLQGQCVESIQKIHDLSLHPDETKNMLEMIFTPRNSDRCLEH

CYP11B1 = molecular target: T2, CYP11B1 (Homo sapiens, UniProt P15538); assay: Inhibition of human CYP11B1 expressed in hamster V79MZh cells using deoxycorticosterone as substrate at 500 nM; format: cell-based; details: hamster V79MZh cells expressing human CYP11B1, probe deoxycorticosterone
T2 sequence (P15538 whole entry): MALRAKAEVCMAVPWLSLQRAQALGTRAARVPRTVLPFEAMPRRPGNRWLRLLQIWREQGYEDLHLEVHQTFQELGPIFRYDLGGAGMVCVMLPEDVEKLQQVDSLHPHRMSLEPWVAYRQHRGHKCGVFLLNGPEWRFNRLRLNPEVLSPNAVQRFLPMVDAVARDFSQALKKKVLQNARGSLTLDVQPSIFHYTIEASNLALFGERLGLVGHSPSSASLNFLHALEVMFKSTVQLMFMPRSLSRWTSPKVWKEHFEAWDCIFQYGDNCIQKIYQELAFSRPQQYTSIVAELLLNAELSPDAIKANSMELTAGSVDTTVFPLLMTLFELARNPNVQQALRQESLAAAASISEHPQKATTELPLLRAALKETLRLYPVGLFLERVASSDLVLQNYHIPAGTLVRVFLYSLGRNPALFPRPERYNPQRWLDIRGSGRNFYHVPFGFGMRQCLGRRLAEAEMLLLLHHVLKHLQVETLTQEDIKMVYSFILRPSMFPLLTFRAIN

CYP17 = molecular target: T3, CYP17 (Homo sapiens, UniProt P05093); assay: Inhibition of human CYP17 expressed in Escherichia coli co-expressing NADPH-P450 reductase at 2 uM using progesterone as substrate; details: probe progesterone
T3 sequence (P05093 whole entry): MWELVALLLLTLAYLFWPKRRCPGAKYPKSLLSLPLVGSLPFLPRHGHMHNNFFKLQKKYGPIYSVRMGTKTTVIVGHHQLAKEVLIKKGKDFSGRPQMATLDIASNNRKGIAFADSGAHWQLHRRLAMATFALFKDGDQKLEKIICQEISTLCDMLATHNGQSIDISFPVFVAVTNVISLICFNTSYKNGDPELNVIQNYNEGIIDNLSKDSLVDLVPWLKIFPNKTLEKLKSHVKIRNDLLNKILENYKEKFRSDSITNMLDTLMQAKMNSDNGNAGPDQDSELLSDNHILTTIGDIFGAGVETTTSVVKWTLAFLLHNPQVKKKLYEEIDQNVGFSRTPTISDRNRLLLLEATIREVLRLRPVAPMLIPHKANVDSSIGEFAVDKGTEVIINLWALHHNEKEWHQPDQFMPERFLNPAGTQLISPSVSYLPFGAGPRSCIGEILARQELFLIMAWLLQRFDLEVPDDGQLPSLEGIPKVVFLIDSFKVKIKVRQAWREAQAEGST

[2] = molecular target: T4, Cytochrome P450 11B2, mitochondrial (Homo sapiens, UniProt P19099); assay: Inhibition of human CYP11B2 expressed in hamster V79MZh cells using deoxycorticosterone as substrate at 500 nM; format: cell-based
T4 sequence (P19099 whole entry): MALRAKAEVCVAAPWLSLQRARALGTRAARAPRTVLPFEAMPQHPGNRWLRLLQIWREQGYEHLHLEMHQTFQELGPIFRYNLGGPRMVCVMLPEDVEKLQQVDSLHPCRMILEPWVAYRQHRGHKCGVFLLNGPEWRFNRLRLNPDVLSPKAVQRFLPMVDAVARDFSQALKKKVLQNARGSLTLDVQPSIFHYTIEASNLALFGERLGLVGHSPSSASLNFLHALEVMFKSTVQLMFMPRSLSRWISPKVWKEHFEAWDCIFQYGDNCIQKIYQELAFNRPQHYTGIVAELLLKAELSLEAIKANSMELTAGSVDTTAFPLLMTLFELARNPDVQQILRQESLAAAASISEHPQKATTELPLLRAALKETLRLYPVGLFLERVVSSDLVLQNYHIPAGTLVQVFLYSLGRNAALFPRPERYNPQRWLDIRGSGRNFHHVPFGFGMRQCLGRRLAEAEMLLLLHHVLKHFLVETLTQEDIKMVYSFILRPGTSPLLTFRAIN

[3] = molecular target: T5, Cytochrome P450 11B1, mitochondrial (Homo sapiens, UniProt P15538)
T5 sequence (P15538 whole entry): T2 sequence (P15538 whole entry)

[4] = molecular target: T4, Cytochrome P450 11B2, mitochondrial
Cytochrome P450 2C9 = Cytochrome P450 2C9 (Homo sapiens, UniProt P11712); assay: Inhibition of CYP2C9 using recombinant human CYP enzyme at a single time point by LC-MS/MS analysis
Cytochrome P450 2D6 = Cytochrome P450 2D6 (Homo sapiens, UniProt P10635); assay: Inhibition of CYP2D6 using recombinant human CYP enzyme at a single time point by LC-MS/MS analysis
Cytochrome P450 1A2 = molecular target: T6, Cytochrome P450 1A2 (Homo sapiens, UniProt P05177); assay: Inhibition of CYP1A2 using recombinant human CYP enzyme at a single time point by LC-MS/MS analysis
T6 sequence (P05177 whole entry): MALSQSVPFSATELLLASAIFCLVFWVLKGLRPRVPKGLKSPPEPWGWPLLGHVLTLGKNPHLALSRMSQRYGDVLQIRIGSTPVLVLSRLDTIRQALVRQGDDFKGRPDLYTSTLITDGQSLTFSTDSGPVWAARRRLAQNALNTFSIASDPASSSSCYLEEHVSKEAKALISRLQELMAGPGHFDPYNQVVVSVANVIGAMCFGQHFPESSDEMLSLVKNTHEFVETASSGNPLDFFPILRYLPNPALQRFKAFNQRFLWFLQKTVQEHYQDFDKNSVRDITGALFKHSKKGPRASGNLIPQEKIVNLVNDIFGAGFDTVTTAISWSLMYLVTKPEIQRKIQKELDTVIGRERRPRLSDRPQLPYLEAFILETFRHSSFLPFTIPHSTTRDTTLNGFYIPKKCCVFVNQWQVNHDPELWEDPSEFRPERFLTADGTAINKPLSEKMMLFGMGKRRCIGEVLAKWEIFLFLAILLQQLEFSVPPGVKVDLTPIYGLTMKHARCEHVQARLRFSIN

Cytochrome P450 2C19 = Cytochrome P450 2C19 (Homo sapiens, UniProt P33261); assay: Inhibition of CYP2C19 using recombinant human CYP enzyme at a single time point by LC-MS/MS analysis
Cytochrome P450 3A4 = Cytochrome P450 3A4 (Homo sapiens, UniProt P08684); assay: Inhibition of CYP3A4 using recombinant human CYP enzyme at a single time point by LC-MS/MS analysis
[5] = Intrinsic clearance in human liver microsomes at 1 uM by LC-MS/MS analysis; details: read-out: CLH

Chain of Cytochrome P450 2C9 (P11712 whole entry): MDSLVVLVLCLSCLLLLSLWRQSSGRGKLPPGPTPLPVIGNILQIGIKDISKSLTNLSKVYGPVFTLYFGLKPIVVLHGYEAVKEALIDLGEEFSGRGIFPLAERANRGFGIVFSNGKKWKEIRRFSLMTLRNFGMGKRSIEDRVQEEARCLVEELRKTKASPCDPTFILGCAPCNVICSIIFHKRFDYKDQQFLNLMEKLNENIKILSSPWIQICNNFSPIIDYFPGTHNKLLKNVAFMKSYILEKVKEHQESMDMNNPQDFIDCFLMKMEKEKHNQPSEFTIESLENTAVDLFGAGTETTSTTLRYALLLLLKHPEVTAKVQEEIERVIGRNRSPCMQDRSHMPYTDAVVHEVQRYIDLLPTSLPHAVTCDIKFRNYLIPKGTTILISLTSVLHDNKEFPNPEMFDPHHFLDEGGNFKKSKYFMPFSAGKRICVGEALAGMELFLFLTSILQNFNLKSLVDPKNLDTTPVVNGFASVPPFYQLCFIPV
Chain of Cytochrome P450 3A4 (P08684 whole entry): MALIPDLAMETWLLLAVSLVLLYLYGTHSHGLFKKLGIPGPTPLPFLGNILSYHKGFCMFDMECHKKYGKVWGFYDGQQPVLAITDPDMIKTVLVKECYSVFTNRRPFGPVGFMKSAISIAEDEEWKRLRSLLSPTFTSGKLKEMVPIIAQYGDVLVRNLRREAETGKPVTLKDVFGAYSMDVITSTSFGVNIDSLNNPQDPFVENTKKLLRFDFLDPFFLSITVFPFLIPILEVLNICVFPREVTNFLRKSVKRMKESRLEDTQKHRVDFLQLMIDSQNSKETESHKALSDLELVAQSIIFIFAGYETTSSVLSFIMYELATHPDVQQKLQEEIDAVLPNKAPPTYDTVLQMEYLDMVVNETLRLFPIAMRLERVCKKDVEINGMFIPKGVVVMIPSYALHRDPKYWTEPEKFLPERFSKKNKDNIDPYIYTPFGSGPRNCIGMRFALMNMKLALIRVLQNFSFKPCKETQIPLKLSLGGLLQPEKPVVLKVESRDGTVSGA
Chain of Cytochrome P450 2D6 (P10635 whole entry): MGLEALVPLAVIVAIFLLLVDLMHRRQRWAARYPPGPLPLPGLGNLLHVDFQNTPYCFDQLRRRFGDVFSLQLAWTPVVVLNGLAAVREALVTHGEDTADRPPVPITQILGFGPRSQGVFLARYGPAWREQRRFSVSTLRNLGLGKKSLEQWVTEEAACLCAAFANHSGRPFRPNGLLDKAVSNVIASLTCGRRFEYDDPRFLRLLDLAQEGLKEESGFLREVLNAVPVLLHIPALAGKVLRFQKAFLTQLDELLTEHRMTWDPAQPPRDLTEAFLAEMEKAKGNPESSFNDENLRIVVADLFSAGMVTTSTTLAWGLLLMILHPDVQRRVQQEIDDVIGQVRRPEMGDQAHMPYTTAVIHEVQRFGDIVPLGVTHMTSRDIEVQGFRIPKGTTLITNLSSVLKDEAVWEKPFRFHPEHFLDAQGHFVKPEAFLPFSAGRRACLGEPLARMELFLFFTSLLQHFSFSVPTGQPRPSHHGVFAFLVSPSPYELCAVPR
Chain of Cytochrome P450 2C19 (P33261 whole entry): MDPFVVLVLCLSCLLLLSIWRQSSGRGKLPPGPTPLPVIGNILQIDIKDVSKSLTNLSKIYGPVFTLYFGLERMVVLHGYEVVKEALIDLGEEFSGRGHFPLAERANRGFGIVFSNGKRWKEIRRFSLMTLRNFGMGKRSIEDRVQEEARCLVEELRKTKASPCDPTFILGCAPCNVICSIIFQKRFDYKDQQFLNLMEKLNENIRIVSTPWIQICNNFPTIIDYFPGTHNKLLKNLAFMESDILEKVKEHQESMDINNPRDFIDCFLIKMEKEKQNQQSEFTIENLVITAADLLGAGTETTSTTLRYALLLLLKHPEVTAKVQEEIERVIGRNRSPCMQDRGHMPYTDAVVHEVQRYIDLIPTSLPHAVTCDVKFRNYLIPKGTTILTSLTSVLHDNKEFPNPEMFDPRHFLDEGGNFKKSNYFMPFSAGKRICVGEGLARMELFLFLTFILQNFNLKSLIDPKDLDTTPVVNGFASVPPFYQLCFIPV

Row | Structure (SMILES) | half-life [1] | inhibition at 0.5 µM (CYP19) | inhibition (CYP11B1) | inhibition at 2 µM (CYP17) | inhibition [2] | IC50 [3] | IC50 [4] | IC50 (Cytochrome P450 2C9) | IC50 (Cytochrome P450 2D6) | IC50 (Cytochrome P450 1A2) | IC50 (Cytochrome P450 2C19) | IC50 (Cytochrome P450 3A4) | microsomal CLint [5]
1 | O=C1CCc2cc(-c3cccnc3)cc3c2N1CC3 | 9 min |  |  |  |  |  |  |  |  |  |  |  | 
2 | CCC(=O)N1CCc2cc(-c3cccnc3)ccc21 |  | < 7% | 0.8% | < 7% | 66% |  |  |  |  |  |  |  | 
3 | O=C(CCCl)N1CCc2cc(-c3cccnc3)ccc21 |  |  | 6% |  | 7% | > 5 µM | > 5 µM |  |  |  |  |  | 
4 | COc1ccc(C(=O)N2CCc3cc(-c4cccnc4)ccc32)cc1 |  |  | 1.6% |  | 26% | > 5 µM |  |  |  |  |  |  | 
5 | O=C(Cc1ccccc1)N1CCc2cc(-c3cccnc3)ccc21 |  |  | 26% |  | 2.2% | 1.52 µM | > 5 µM |  |  |  |  |  | 
6 | CCC(=O)N1CCc2cc(-c3cncc4ccccc34)ccc21 | 15 min | < 7% | 39% | < 7% | 100% |  |  | > 50 µM | > 50 µM | > 50 µM | > 50 µM | > 50 µM | 91 µL/min/mg
7 | O=C(C1CC1)N1CCc2cc(-c3cncc4ccccc34)ccc21 |  | < 7% | 29% | < 7% | 98% | 3.72 µM | 0.03 µM |  |  |  |  |  | 
8 | CC(C)C(=O)N1CCc2cc(-c3cncc4ccccc34)ccc21 |  | < 7% | 11% | < 7% | 90% | 6.09 µM | 0.152 µM |  |  |  |  |  | 
9 | CC(=O)N1CCc2cc(-c3cncc(F)c3)ccc21 |  | < 7% | 11% | < 7% | 93% | 6.81 µM | 0.061 µM |  |  |  |  |  | 
10 | COc1cncc(-c2ccc3c(c2)CCN3C(C)=O)c1 |  | < 7% | 48% | < 7% | 100% |  |  |  |  |  |  |  | 
11 | CC(=O)N1CCc2cc(-c3cnccc3C)ccc21 | 17 min | < 7% | 70% | < 7% | 100% |  |  | > 50 µM | > 50 µM | > 50 µM | > 50 µM | > 50 µM | 81 µL/min/mg
12 | CC(=O)n1ccc2cc(-c3cccnc3)ccc21 |  | < 7% | 25% | < 7% | 98% |  |  |  |  |  |  |  | 
